Test results reported in patent US20080090805A1, “CB-1 MODULATING COMPOUNDS AND THEIR USE” (ACADIA PHARMACEUTICALS INC., priority 2005, published 2008).

Test system: NSA mice
Test: Hypothermia study (block of CP 55,940-induced hypothermia)
Assay type: in vivo
Parameters: Hypothermia 3 mg/kg / Hypothermia 0.3 mg/kg: unit not given here
Details: for Hypothermia ID50: block of CP 55,940-induced hypothermia
Experimental: . […] Core body temperatures were then obtained at various time points following CP 55,940 administration. Core body temperature (to the nearest 0.1° C.) was obtained by rectal probe.

Row | SMILES | Hypothermia 0.3 mg/kg | Hypothermia 3 mg/kg | Hypothermia ID50
1 | O=C(NCCCC(F)(F)F)c1ccc2c(c1)N=C(c1ccc(Cl)s1)c1ccccc1S2 [drawing 1554] | 11 | 73 | 1.7 mg/kg
2 | CCCCNC(=O)c1ccc2c(c1)N=C(c1ccc(Br)cn1)c1ccccc1S2 [drawing 1555] |  | 80 | 
3 | CC(C)CNC(=O)c1ccc2c(c1)N=C(c1ccc(Cl)cc1)c1ccc(F)cc1S2 [drawing 1556] |  | 41 | 
4 | O=C(NCc1ccco1)c1ccc2c(c1)N=C(c1ccc(Cl)s1)c1ccccc1S2 [drawing 1557] |  | 66 | 
5 | O=C(NCc1cccs1)c1ccc2c(c1)N=C(c1ccc(F)cc1)c1ccccc1S2 [drawing 1558] | 19 | 90 | 1 mg/kg
6 | O=C(NCc1cccs1)c1ccc2c(c1)N=C(c1cccc(F)c1)c1ccccc1S2 [drawing 1559] |  | 17 | 
7 | CCCCNC(=O)c1ccc2c(c1)N=C(c1ccc(Cl)cc1)c1ccccc1S2 [drawing 1560] | 15 | 82 | 0.79 mg/kg
8 | O=C(NN1CCCCC1)c1ccc2c(c1)N=C(c1ccc(Cl)s1)c1ccccc1S2 [drawing 1561] |  | 42 | 
9 | CCCCNC(=O)c1ccc2c(c1)N=C(c1ccc(Cl)cc1)c1ccc(F)cc1S2 [drawing 1562] | 11 | 53 | 
10 | O=C(NN1CCCCCC1)c1ccc2c(c1)N=C(c1ccc(Cl)cc1F)c1ccccc1S2 [drawing 1563] | 2 | 54 | 
11 | CC(C)CCNC(=O)c1ccc2c(c1)N=C(c1cccc(Cl)c1)c1ccccc1S2 [drawing 1564] | 35 | 64 | 
12 | O=C(NCc1cccnc1)c1ccc2c(c1)N=C(c1ccc(Cl)c(Cl)c1)c1ccccc1S2 [drawing 1565] | 1 | 19 | 
13 | COc1cccc(C2=Nc3cc(C(=O)NCCCC(F)(F)F)ccc3Sc3ccccc32)n1 [drawing 1566] |  | 46 | 
14 | O=C(NCc1ccco1)c1ccc2c(c1)N=C(c1ccc(Cl)c(Cl)c1)c1ccccc1S2 [drawing 1567] |  | 54 | 
15 | CCCCNC(=O)c1ccc2c(c1)N=C(c1ccc(Cl)s1)c1ccccc1S2 [drawing 1568] | 12 | 53 | 2.3 mg/kg
16 | O=C(NCCc1cccnc1)c1ccc2c(c1)N=C(c1ccc(Cl)c(Cl)c1)c1ccccc1S2 [drawing 1569] |  | 41 | 
17 | CC(C)CNC(=O)c1ccc2c(c1)N=C(c1ccc(Cl)c(Cl)c1)c1ccccc1S2 [drawing 1570] |  | 40 | 
18 | O=C(NCc1cccc(Cl)c1)c1ccc2c(c1)N=C(c1ccc(F)cc1)c1ccccc1S2(=O)=O [drawing 1571] |  | 45 | 
19 | COc1cccc(C2=Nc3cc(C(=O)NC4CCC(F)(F)CC4)ccc3Sc3ccccc32)n1 [drawing 1572] |  | 19 | 
20 | O=C(NCc1ccccc1Cl)c1ccc2c(c1)N=C(c1cccc(Cl)c1)c1ccccc1S2 [drawing 1573] |  | −2 | 

Row | SMILES | Hypothermia 0.3 mg/kg | Hypothermia 3 mg/kg | Hypothermia ID50
21 | O=C(NC1CCCCC1)c1ccc2c(c1)N=C(c1cccc(Cl)c1)c1ccccc1S2 [drawing 1574] |  | 74 | 
22 | O=C(NN1CCCCC1)c1ccc2c(c1)N=C(c1ccc(Cl)cc1)c1ccccc1S2 [drawing 1575] | −18 | 69 | 
23 | CC(C)CNC(=O)c1ccc2c(c1)N=C(c1ccc(Cl)cc1F)c1ccccc1S2 [drawing 1576] | 0 | 71 | 
24 | CCCCNC(=O)c1ccc2c(c1)N=C(c1ccc(Cl)s1)c1cc(Cl)ccc1S2 [drawing 1577] |  | −9 | 
25 | CC(C)CNC(=O)c1ccc2c(c1)N=C(c1ccc(Cl)s1)c1ccccc1S2 [drawing 1578] | 23 | 73 | 
26 | CCCCNC(=O)c1ccc2c(c1)N=C(c1cccc(Cl)c1)c1cc(F)ccc1S2 [drawing 1579] |  | 8 | 
27 | O=C(NC1CCCCC1)c1ccc2c(c1)N=C(c1ccc(F)cc1)c1ccccc1S2 [drawing 1580] | 28 | 82 | 
28 | O=C(NCc1ccco1)c1ccc2c(c1)N=C(c1cccc(Cl)c1)c1ccccc1S2 [drawing 1581] | 24 | 67 | 1 mg/kg
29 | O=C(NN1CCCCC1)c1ccc2c(c1)N=C(c1ccc(F)cc1)c1ccccc1S2 [drawing 1582] | 7 | 87 | 0.96 mg/kg
30 | O=C(NCc1cccc(Cl)c1)c1ccc2c(c1)N=C(c1ccc(Cl)cc1)c1cc(F)ccc1S2 [drawing 1583] | 14 | −4 | 
31 | O=C(NN1CCCCCC1)c1ccc2c(c1)N=C(c1ccc(Cl)s1)c1ccccc1S2 [drawing 1584] | 33 | 83 | 0.59 mg/kg
32 | O=C(NCCc1cccnc1)c1ccc2c(c1)N=C(c1ccc(Cl)s1)c1ccccc1S2 [drawing 1585] | −14 | 76 | 1.7 mg/kg
33 | O=C(NN1CCCCCC1)c1ccc2c(c1)N=C(c1cccc(Cl)c1)c1ccccc1S2 [drawing 1586] | −27 | 86 | 1.14 mg/kg
34 | CCCNC(=O)c1ccc2c(c1)N=C(c1ccc(Cl)cc1)c1ccccc1S2 [drawing 1588] | 29 | 54 | 
35 | CCCCNC(=O)c1ccc2c(c1)N=C(c1ccc(Cl)s1)c1ccc(Cl)cc1S2 [drawing 1589] |  | 1 | 
36 | O=C(NN1CCCCCC1)c1ccc2c(c1)N=C(c1cccc(F)c1)c1ccccc1S2 [drawing 1590] | 21 | 85 | 0.93 mg/kg
37 | O=C(NCCc1ccncc1)c1ccc2c(c1)N=C(c1ccc(Cl)c(Cl)c1)c1ccccc1S2 [drawing 1591] |  | 41 | 
38 | O=C(NN1CCCCC1)c1ccc2c(c1)N=C(C1CCCCC1)c1ccccc1S2 [drawing 1592] |  | 69 | 
39 | CCCCNC(=O)c1ccc2c(c1)N=C(c1cccc(F)c1)c1ccccc1S2 [drawing 1593] |  | 36 | 
40 | Cc1ccc(CNC(=O)c2ccc3c(c2)N=C(c2ccc(Cl)s2)c2ccccc2S3)o1 [drawing 1594] |  | 16 | 

Row | SMILES | Hypothermia 0.3 mg/kg | Hypothermia 3 mg/kg | Hypothermia ID50
41 | CCCCNC(=O)c1ccc2c(c1)N=C(c1ccc(Cl)cn1)c1ccccc1S2 [drawing 1595] |  | 53 | 
42 | O=C(NC1CCC(F)(F)CC1)c1ccc2c(c1)N=C(c1ccc(Cl)s1)c1ccccc1S2 [drawing 1596] |  | 51 | 
43 | Cc1ccsc1C1=Nc2cc(C(=O)NN3CCCCCC3)ccc2Sc2ccccc21 [drawing 1597] |  | 18 | 
44 | Cc1ccsc1C1=Nc2cc(C(=O)NCCCC(F)(F)F)ccc2Sc2ccccc21 [drawing 1598] |  | 24 | 
45 | COc1ccc(C2=Nc3cc(C(=O)NCC(C)C)ccc3Sc3ccccc32)cc1 [drawing 1599] |  | 71 | 
46 | O=C(NCCCC(F)(F)F)c1ccc2c(c1)N=C(c1ccsc1)c1ccccc1S2 [drawing 1600] | 32 |  | 
47 | CCCCNC(=O)c1ccc2c(c1)N=C(c1ccc(Cl)s1)c1cc(F)ccc1S2 [drawing 1601] |  | 17 | 
48 | CC(C)CCNC(=O)c1ccc2c(c1)N=C(c1cccc(F)c1)c1ccccc1S2 [drawing 1602] | 0 | 67 | 
49 | O=C(NC1CCCCC1)c1ccc2c(c1)N=C(c1ccc(Cl)cc1)c1ccccc1S2 [drawing 1603] |  | 60 | 
50 | O=C(NC1CCC(F)(F)CC1)c1ccc2c(c1)N=C(c1cccc(Cl)c1)c1ccccc1S2 [drawing 1604] | 5 |  | 
51 | C[C@@H]1CCC[C@H](C)N1NC(=O)c1ccc2c(c1)N=C(c1cccc(Cl)c1)c1ccccc1S2 [drawing 1605] |  | −2 | 
52 | O=C(NCCCC(F)(F)F)c1ccc2c(c1)N=C(c1cccc(F)c1)c1ccccc1S2 [drawing 1606] | 11 |  | 
53 | CCCCNC(=O)c1cnc2c(n1)N=C(c1ccccc1)c1ccccc1S2 [drawing 1607] |  | 7 | 
54 | O=C(NC1CCC(F)(F)CC1)c1ccc2c(c1)N=C(c1cccc(F)c1)c1ccccc1S2 [drawing 1608] |  | 46 | 
55 | O=C(NCCc1ccncc1)c1ccc2c(c1)N=C(c1ccc(Cl)s1)c1ccccc1S2 [drawing 1609] |  | 67 | 
56 | Cc1csc(CNC(=O)c2ccc3c(c2)N=C(c2sccc2C)c2ccccc2S3)c1 [drawing 1610] |  | −2 | 
57 | O=C(NCc1cccnc1)c1ccc2c(c1)N=C(c1ccc(F)cc1)c1ccccc1S2 [drawing 1611] | 11 | 28 | 
58 | O=C(NCc1cccs1)c1ccc2c(c1)N=C(c1ccc(Cl)s1)c1ccccc1S2 [drawing 1612] |  | 47 | 
59 | O=C(NCc1cccnc1)c1ccc2c(c1)N=C(c1ccc(Br)cc1)c1ccccc1S2 [drawing 1613] |  | 2 | 
